Drawing on US20100216772A1, “Novel Phenantridine Analogues and Uses Thereof” (priority 2004, published 2010), this text covers EC50 and inhibition for 25 compounds.

Assay [1] has as its system Peripheral blood mononuclear cells (PBMCs). As to the kind of experiment: Influence of compounds on T cell proliferation ([3H]-Thymidin, anti-CD3-stimulated PBMCs). In kind it is cell-based. The conditions noted are these: PBMC, three different human donors. From the text: Peripheral blood mononuclear cells (PBMCs) were isolated from peripheral blood by Ficoll gradient centrifugation. […] Subsequently, the cells were washed three times with PBS and were resuspended in 96-well plates in a concentration of 2×10^5 cells/well. […] As positive and negative controls, PBMCs, stimulated with soluble anti-CD3-antibody, and non-stimulated PBMCs plus 0,1% DMSO were used. The addition of 0,1% DMSO had no effect on the proliferation rate. […] The cells were harvested using a Mikro 96 Harvester (Skatron Instruments, Lier, Norwegen). The cpm-values indicative for proliferation were determined using a Packard Matrix 9600 Counter (Canberra Packard, Schwadorf, Österreich). The experiments were made with three different human donors.
In order to determine the EC50 of test compounds, the value of anti-CD3-stimulated cells plus 0,1% DMSO was set as 100%. All other values were divided by the 100% value in order to obtain a relative percentage of inhibition. The obtained percentage values were used to determine the EC50 values using Sigma Plot.

The subject of assay [2] is HaCaT keratinocytes. Description: Influence of compounds on keratinocyte proliferation (Cell Titer Viability Assay). Format: cell-based. The note with it: Homo sapiens, 25 μM test compound, 48 hrs, compared to control experiments. How it is done: 5×10^3 HaCaT keratinocytes were seeded into 60 wells of 96 well plates in 200 μl KBM/10% FCS and incubated for 24 hrs at 37° C. The test compounds were dissolved at 100 mM in DMSO. The test items were then diluted to a concentration of 25 μM in KBM/FCS with a final concentration of 1% DMSO. The test compounds, as well as the negative control for unstimulated cells (KBM/1% DMSO) and stimulated cells (KBM/FCS/1% DMSO), were added to the HaCaTs in triplicates and incubated for 48 hrs. At the end of the incubation period, the media was removed and cell numbers were determined with Cell Titer Viability Assay from Promega (#G7571/G7572) according to the manufacturer's instructions.

Bounds are passed on as bounds.

In assay [1], `CC(=O)N1c2ccccc2-c2ccccc2C1c1c[nH]c2ccccc12` (centres unmarked) [Example 3, 1-[6-(1H-Indol-3-yl)-6H-phenanthridin-5-yl]-ethanone] displayed an EC50 below 25 µM. The same compound registered an inhibition at 25 µM in assay [2] above 50%. Compound `O=C(c1ccccc1)N1c2ccccc2-c2ccccc2C1c1c[nH]c2ccccc12` (centres unmarked) [Example 4, [6-(1H-Indol-3-yl)-6H-phenanthridin-5-yl]-phenylmethanone] displayed an inhibition at 25 µM in assay [2] above 50%.

The compound `CN(C)c1ccc(C(=O)N2c3ccccc3-c3ccccc3C2c2c[nH]c3ccccc23)cc1` (centres unmarked) [Example 6, (4-Dimethylamino-phenyl)-[6-(1H-indol-3-yl)-6H-phenanthridin-5-yl]-methanone] had an inhibition at 25 µM in assay [2] above 50%.

`O=C(c1ccc(C(F)(F)F)cc1)N1c2ccccc2-c2ccccc2C1c1c[nH]c2ccccc12` (centres unmarked) [Example 7, [6-(1H-Indol-3-yl)-6H-phenanthridin-5-yl]-(4-trifluoromethyl-phenyl)-methanone]: the inhibition at 25 µM in assay [2] was above 50%. In the case of `O=C(c1cccc(F)c1)N1c2ccccc2-c2ccccc2C1c1c[nH]c2ccccc12` (centres unmarked) [Example 12, (3-Fluoro-phenyl)-[6-(1H-indol-3-yl)-6H-phenanthridin-5-yl]-methanone], the EC50 in assay [1] is below 25 µM. Besides, the inhibition at 25 µM in assay [2] was above 50%. `O=C(c1cccc(C(F)(F)F)c1)N1c2ccccc2-c2ccccc2C1c1c[nH]c2ccccc12` (centres unmarked) [Example 14, [6-(1H-Indol-3-yl)-6H-phenanthridin-5-yl]-(3-trifluoromethyl-phenyl)-methanone]: the inhibition at 25 µM in assay [2] is above 50%. The same measure, in the same setting: as for `O=C(c1cc(C(F)(F)F)cc(C(F)(F)F)c1)N1c2ccccc2-c2ccccc2C1c1c[nH]c2ccccc12` (centres unmarked) [Example 17, (3,5-Bis-trifluoromethyl-phenyl)-[6-(1H-indol-3-yl)-6H-phenanthridin-5-yl]-methanone], the figure is above 50%; as for `O=C(c1ccc(Cl)nc1)N1c2ccccc2-c2ccccc2C1c1c[nH]c2ccccc12` (centres unmarked) [Example 20, (6-Chloro-pyridin-3-yl)-[6-(1H-indol-3-yl)-6H-phenanthridin-5-yl]-methanone], above 50%. In assay [1], `O=C(c1cccnc1Cl)N1c2ccccc2-c2ccccc2C1c1c[nH]c2ccccc12` (centres unmarked) [Example 21, (2-Chloro-pyridin-3-yl)-[6-(1H-indol-3-yl)-6H-phenanthridin-5-yl]-methanone] showed an EC50 below 25 µM. The inhibition at 25 µM in assay [2] was above 50%. In assay [1], `O=C(c1ccco1)N1c2ccccc2-c2ccccc2C1c1c[nH]c2ccccc12` (centres unmarked) [Example 23, Furan-2-yl-[6-(1H-indol-3-yl)-6H-phenanthridin-5-yl]-methanone] had an EC50 below 25 µM. For the same compound, the inhibition at 25 µM in assay [2] was above 50%. For `CC(C)C(=O)N1c2ccccc2-c2ccccc2C1c1c[nH]c2ccccc12` (centres unmarked) [Example 26, 1-[6-(1H-Indol-3-yl)-6H-phenanthridin-5-yl]-2-methyl-propan-1-one] the same measures were below 25 µM and above 50%. For `CCCC(C)C(=O)N1c2ccccc2-c2ccccc2C1c1c[nH]c2ccccc12` (centres unmarked) [Example 28, 1-[6-(1H-Indol-3-yl)-6H-phenanthridin-5-yl]-2-methyl-pentan-1-one] the same measures were below 25 µM and above 50%. Turning to `O=C(C1CCC1)N1c2ccccc2-c2ccccc2C1c1c[nH]c2ccccc12` (centres unmarked) [Example 30, Cyclobutyl-[6-(1H-indol-3-yl)-6H-phenanthridin-5-yl]-methanone], the inhibition at 25 µM in assay [2] was above 50%.

With `O=C(CCC1CCCCC1)N1c2ccccc2-c2ccccc2C1c1c[nH]c2ccccc12` (centres unmarked) [Example 34, 3-Cyclohexyl-1-[6-(1H-indol-3-yl)-6H-phenanthridin-5-yl]-propan-1-one], the inhibition at 25 µM in assay [2] was above 50%. The same measure, in the same setting: the result for `O=C(CCc1ccccc1)N1c2ccccc2-c2ccccc2C1c1c[nH]c2ccccc12` (centres unmarked) [Example 35, 1-[6-(1H-Indol-3-yl)-6H-phenanthridin-5-yl]-3-phenyl-propan-1-one] reads above 50%. On the same count and under the same terms, the result for `COC(=O)N1c2ccccc2-c2ccccc2C1c1c[nH]c2ccccc12` (centres unmarked) [Example 36, 6-(1H-Indol-3-yl)-6H-phenanthridine-5-carboxylic acid methyl ester] reads above 50%. Compound `Cc1ccc(S(=O)(=O)N2c3ccccc3-c3ccccc3C2c2ccc3c(c2)OCO3)cc1` (centres unmarked) [Example 76, 6-Benzo[1,3]dioxol-5-yl-5-(toluene-4-sulfonyl)-5,6-dihydro-phenanthridine] registered an EC50 in assay [1] below 25 µM. On the same count and under the same terms, the result for `Cc1ccc(C(=O)n2c(=O)c3ccccc3c3ccccc32)cc1` [Example 77, 5-(4-Methyl-benzoyl)-5H-phenanthridin-6-one] reads below 25 µM. `Cc1ccc(S(=O)(=O)N2CC(=O)c3ccccc3-c3ccccc32)cc1` [Example 78, 5-(Toluene-4-sulfonyl)-5,6-dihydro-dibenzo[b,d]azepin-7-one] registered an EC50 in assay [1] below 25 µM. In assay [2], this compound yielded an inhibition at 25 µM above 50%. As for `O=C1CN(S(=O)(=O)c2ccccc2)c2ccccc2-c2ccccc21` [Example 79, 5-Benzenesulfonyl-5,6-dihydro-dibenzo[b,d]azepin-7-one], the EC50 in assay [1] is below 25 µM. The same measure, in the same setting: as for `CC(=O)Nc1ccc(S(=O)(=O)N2CC(=O)c3ccccc3-c3ccccc32)cc1` [Example 81, N-[4-(7-Oxo-6,7-dihydro-dibenzo[b,d]azepine-5-sulfonyl)-phenyl]-acetamide], the figure is below 25 µM; as for `O=C1CN(S(=O)(=O)c2ccc(Br)cc2)c2ccccc2-c2ccccc21` [Example 82, 5-(4-Bromo-benzenesulfonyl)-5,6-dihydro-dibenzo[b,d]azepin-7-one], below 25 µM. Still for that read-out and setting: the result for `O=C1CN(S(=O)(=O)c2ccc([N+](=O)[O-])cc2)c2ccccc2-c2ccccc21` [Example 83, 5-(4-Nitro-benzenesulfonyl)-5,6-dihydro-dibenzo[b,d]azepin-7-one] reads below 25 µM; that for `O=C1CN(S(=O)(=O)c2cc(C(F)(F)F)cc(C(F)(F)F)c2)c2ccccc2-c2ccccc21` [Example 84, 5-(3,5-Bis-trifluoromethyl-benzenesulfonyl)-5,6-dihydro-dibenzo[b,d]azepin-7-one], below 25 µM. Same read-out and setting: as for `O=C1CN(S(=O)(=O)c2cccs2)c2ccccc2-c2ccccc21` [Example 86, 5-(Thiophene-2-sulfonyl)-5,6-dihydro-dibenzo[b,d]azepin-7-one], the figure is below 25 µM.
